# Like-named read-outs stand apart in the source and are kept apart here. Where a SMILES comes first, the peptide text is derived from it. The star is where a group is joined. X1 = CC1(C)C(=CC=C2CCCC(C=CC3=[N+](CCCCCC(=O)O)c4ccccc4C3(C)C)=C2*)N(CCCCCC(=O)O)c2ccccc21
# Columns and labels:
# [1] = Blood circulation pharmacokinetics; assay type: in vivo, mouse; details: Balb/c mice, IV single dose 14 mg/kg, blood 0.017–6 h, fluorescence spectroscopy, DAS2.0, mean ± s.d. n = 3
# Description: respectively. Cell viability (%) was equal to (Asample - Ablank)/ (Acontrol - Ablank) x 100. All the experiments were performed in triplicate.
# Blood circulation. To investigate the pharmacokinetics of the compound 1, 2 and 3, Balb/c mice were randomly divided into three groups (n = 3). Each group was intravenous (iv) injected with a single dose of 14 mg/kg of compou nd 1, 2 or 3. Blood samples were collected via the orbital venous plexus at 0.017, 0.08 3, 0.25, 0.5, 1, 3, 4 and 6 h post injection and collected into EDTA tubes. The supernatant of the blood samples was collected by centrifugation at 10 000 rpm for 10 min , and the content of compound 1, 2 and 3 in the supernatant w ere determined using fluorescence spectrophotometric measurement. Data for known concentrations of compound 1, 2 or 3 (concentration from 1.2 μM to 25.0 μM) were used to make the standard curve, the “Predicted R-Squared” value of 0.99.
# Preparation and characteristic of liposomes. Liposomes were prepared by a thin lipid film hydration method followed by extrusion. Briefly, PC: CH: DSPE -PEG-NHS = 66: 32: 2 (molar ratio) were dissolved in a chloroform/methanol mixture (4: 1) in a round bottom flask. The lipid film was hydrated with PBS (pH 7.4) after evaporation of the chloroform/methanol solvents. […]
# 3 h. […] Morphologies of liposomes were measured by Tecnai G20 electron microscope.
# [2] = tested on: H460 tumour-bearing mice; assay type: in vivo, mouse; details: IV 14 mg/kg; for retention efficiency in tumour up to 48 h post injection: integrated fluorescence in tumour normalized to 1 h, n = 3, repeated three times
# Description: (§1) Animal experiments were performed in accordance with the Guide for the Care and Use of Laboratory Animals and approved by the Institutional Animal Care and Use Committee (IACUC) of the National Center for Nanoscience and Technology (NCNST), China. Female Balb/c nude mice (6–8 weeks, 18–22 g) were purchased from Vital River Laboratory Animal Technology Co. Ltd. H460 cells were subcutaneously implanted into these mice on the right flank. Then the mice were randomly grouped (n = 3). When the tumour grew to a single aspect of about 0.5 cm, we injected the molecules 1, 2 and 3 intravenously in the same dose of 14 mg/kg in PBS solution, respectively. Fluorescence images were measured by a Maestro II in vivo imaging system (CRi) at 1, 2, 4, 6, 8, 12, 24, 48, 72, 96 and 120 h post injection. Further, tumours and other major organs (i.e., heart, liver, spleen, lung and kidney) were collected for ex vivo fluorescence imaging at 48 h post injection. The organ biodistribution of the 1, 2 and 3 was examined using H460 xenografts mice. The mice were sacrificed at 2, 4, 8, 12, 24 or 48 h post injection. Finally, all the major organs and tumour were collected, weighed, and homogenized (0.3 mL of lysis buffer per 100 mg of tissues). The homogeneous tissue solutions were obtained for fluorescence imaging by IVIS Spectrum CT. Known concentrations of compound 1, 2 or 3 are used to make the standard curve (concentration from 2.8 to 25.2 μg/mL), the “Predicted R-Squared” value of 0.99. Then we utilized this standard curve to measure the molecule content in each tissue. In addition, EJ xenograft tumour mice model was built, as above described, to validate the generality of the strategy.
# Supplementary Figure 31∣ Representative NIR fluorescence images of H460 tumour-bearing mice after intravenous administration with molecules 1, 2 and 3 (14 mg/kg, n = 3). Images were acquired at 1 h, 4 h, 12 h, 24 h 48 h, 72 h, 96 h and 120 h post injection (p.i.). The yellow circles marked the same size of the tumour region.
# (§2) (1 picture or pasted object on this page, not shown here)
# Supplementary Figure 32∣ Representative NIR fluorescence images o f H460 tumour-bearing mice after intravenous administrat ed with molecules 1 (14 mg/kg, n = 3) in three groups (In order to test the repeatability of the results, we chose different batches of mice to repeat trials . They were named 1-group, 2-group and 3-group, respectively.). Images were acquired at 1 h, 4 h, 12 h, 24 h 48 h and 72 h post injection (p.i.). All data were obtained by n ormalized fluorescence intensity in tumour. Data are presented as the mean ± s.d. (n= 3).
# [3] = Organ biodistribution from fluorescence of tissue lysates; details: female, Balb/c nude, mouse, in vivo, iv, 14 mg/kg
# Description: as §1
# Supplementary Figure 35∣ Quantitative analysis of the fluorescence intensity. In order to ensure the accuracy of the results, we added a standard solution in every tested 96 -well plate. The fluorescence property of molecules 1, 2 and 3 were identical. We take molecule 1 as example to illustrate the quantitative analysis. a. The top view of fluorescence images of a serial concentration of molecule 1 by Maestro II. The number from 1 to 11 represented 2.8, 5.6, 8.4, 11.2, 14.0, 16.8, 19.6, 22.4, 25.2, 28.0, 35.0 (μg/mL), respectively. The control group represented PBS buffer. b.
# Fluorescence intensity (relative to the background signal) increase d linearly with the concentration […]
# as §2
# Supplementary Figure 36 ∣ Representative NIR fluorescence images of tissue lysates. The molecules 1, 2 and 3 (14 mg/kg, n = 3) on H460 tumour-bearing mice after intravenous administration in three groups. The mice were sacrificed at 2 h, 4 h, 8 h, 12 h, 24 h or 48 h post injection . […] The homogenous tissue solutions were obtained for fluorescence imaging. […]
# [4] = fluorescence of diluted tissue lysates, mean ± s.d. n = 3, read-out: tumour uptake / accumulation efficiency at 48 h post injection
smiles,measurement,setting,value
CC[C@H](C)[C@H](NC(=O)[C@@H]1CCCN1C(=O)[C@@H](NC(=O)[C@H](C)N)C(C)C)C(=O)N[C@@H](C)C(=O)N[C@@H](CCC(N)=O)C(=O)N[C@@H](CCCCN)C(=O)N[C@@H](CC(=O)O)C(=O)N[C@@H](CCC(=O)O)C(=O)N[C@H](C(=O)N[C@@H](CC(=O)O)C(=O)N[C@@H](CCC(=O)O)C(=O)N[C@@H](CSC1=C(C=CC2=[N+](CCCCCC(=O)O)c3ccccc3C2(C)C)CCCC1=CC=C1N(CCCCCC(=O)O)c2ccccc2C1(C)C)C(=O)NCC(=O)O)C(C)C [molecule 3] (H-AVPIAQKDEVDEC(X1)G-OH; N-terminus assumed),blood circulation half-life (t1/2β),[1],1.06 ± 0.17 h
same,retention efficiency in tumour up to 48 h post injection,[2],less than 10.0%
same,tissue uptake at 48 h,[3]; [4],5.3 ± 0.8 %ID/g
CSCC[C@H](N)C(=O)N[C@@H](CC(=O)O)C(=O)N[C@@H](CCC(=O)O)C(=O)N[C@@H](CCCCN)C(=O)N[C@@H](C)C(=O)N[C@@H](CCC(N)=O)C(=O)N[C@@H](CCCCN)C(=O)N[C@@H](CC(=O)O)C(=O)N[C@@H](CCC(=O)O)C(=O)N[C@H](C(=O)N[C@@H](CC(=O)O)C(=O)N[C@@H](CCCCN)C(=O)N[C@@H](CC(C)C)C(=O)N[C@H](C(=O)N[C@@H](Cc1ccccc1)C(=O)N[C@@H](Cc1ccccc1)C(=O)N[C@@H](C)C(=O)N[C@@H](CCC(=O)O)C(=O)N[C@@H](CSC1=C(C=CC2=[N+](CCCCCC(=O)O)c3ccccc3C2(C)C)CCCC1=CC=C1N(CCCCCC(=O)O)c2ccccc2C1(C)C)C(=O)NCC(=O)O)C(C)C)C(C)C [molecule 2] (H-MDEKAQKDEVDKLVFFAEC(X1)G-OH; N-terminus assumed),retention efficiency in tumour up to 48 h post injection,[2],less than 10.0%
same,tissue uptake at 48 h,[3]; [4],4.2 ± 0.1 %ID/g
CC[C@H](C)[C@H](NC(=O)[C@@H]1CCCN1C(=O)[C@@H](NC(=O)[C@H](C)N)C(C)C)C(=O)N[C@@H](C)C(=O)N[C@@H](CCC(N)=O)C(=O)N[C@@H](CCCCN)C(=O)N[C@@H](CC(=O)O)C(=O)N[C@@H](CCC(=O)O)C(=O)N[C@H](C(=O)N[C@@H](CC(=O)O)C(=O)N[C@@H](CCCCN)C(=O)N[C@@H](CC(C)C)C(=O)N[C@H](C(=O)N[C@@H](Cc1ccccc1)C(=O)N[C@@H](Cc1ccccc1)C(=O)N[C@@H](C)C(=O)N[C@@H](CCC(=O)O)C(=O)N[C@@H](CSC1=C(C=CC2=[N+](CCCCCC(=O)O)c3ccccc3C2(C)C)CCCC1=CC=C1N(CCCCCC(=O)O)c2ccccc2C1(C)C)C(=O)NCC(=O)O)C(C)C)C(C)C [molecule 1] (H-AVPIAQKDEVDKLVFFAEC(X1)G-OH),blood circulation half-life (t1/2β),[1],1.15 ± 0.10 h
same,retained tumour signal on the fifth day relative to molecules 2 and 3,[2],~2.5 fold
same,retention efficiency in tumour up to 48 h post injection,[2],approximately 22.0%
same,fluorescence signal retained in tumour on the fifth day,[2]; normalized fluorescence intensity in tumour,over 16.0%
same,tissue uptake at 48 h,[3]; [4],9.2 ± 0.5 %ID/g
same,tissue uptake at 48 h,"[3]; fluorescence of tissue lysates, mean ± s.d. n = 3, read-out: liver retention at 48 h post injection",4.1 ± 0.2 %ID/g

# Reference: PMC6813295, “A tumour-selective cascade activatable self-detained system for drug delivery and cancer imaging” (Nature Communications, 2019)
